How the values were obtained:
[1] = UV rescue of UVA-irradiated fibroblast cells (MTT); assay type: cell-based; settings: peptide 0.0325 mmolL^−1, 24 h, no UV, mean ± SD, n = 6, read-out: % Cell Viability (no UV)
Method: Fibroblast cells were seeded into 96-well plates at a density of 10,000 cells per well determined by cell counting. Cells were allowed to settle and attach for 24 h before the addition of peptides. The supernatant in each well was discarded, and the attached cells were washed using serum-free DMEM twice. One group of cells was exposed to UVA under a UV lamp for 1 h. A second group of cells was not exposed to UV irradiation. The supernatant was removed from each well of both groups and replaced with peptide (100 μL, 0.0325 mmolL^−1), which was then dissolved in Fluorobite^TM DMEM. Each plate, including 2 wells of both groups was also incubated with serum-free DMEM (positive control) and 2% Triton-X (negative control) for 24 h. The supernatant in each well of both groups was then discarded and the cells washed using PBS. MTT (100 μL, 6 mmolL^−1) that was dissolved in HBSS was then added to each well and incubated for 2 h for MTT conversion into formazan. The supernatant was then discarded, and the cells were washed using PBS to remove any residual MTT and formazan that were not attached to the cellular mitochondria. Formazan was dissolved in DMSO (50 μL), and the absorbance was measured on a microplate reader at a wavelength of 570 nm.

[2] = test system: Caco-2, Fibroblast, and HT29-MTX-E12 cells; test: Cytotoxicity by MTT cell viability; assay type: cell-based; settings: for IC50: Homo sapiens, 24 h incubation, cell line not split in table (Caco-2, Fibroblast, HT29-MTX-E12), highest usable concentration 3.25 mmolL^−1
Method: All cell culture studies were conducted in aseptic conditions. Incubation was maintained at an atmosphere of 37.0 °C, 5% CO2, and 95% relative humidity. The caco-2 cells were grown in complete Dulbecco’s modified Eagle’s medium (DMEM), which was prepared by adding 10% foetal bovine serum (FBS), 1% penicillin-streptomycin (P-S), and 1% non-essential amino acids (NEAA) to sterile DMEM. Cells were cultured in T-25 and T-75 tissue culture flasks, and the medium was exchanged every 3 days until 90% confluence was reached. Cells were detached and subcultured with 0.25% Trypsin-EDTA. The suspended cell concentration was determined by cell counting.
Cytotoxicity was measured by measuring cell viability using MTT. Then, 90% confluent cells were detached by 0.25% trypsin-EDTA, which were then counted and seeded into sterile 96-well plates. Caco-2 cells were seeded into 96-well plates at a density of 100,000 cells per well and incubated for 24 h prior to the experiment. Fibroblast cells were seeded into 96-well plates at a density of 10,000 cells per well and incubated for 24 h prior to the experiment. HT-29 cells were seeded into 96-well plates at a density of 10,000 cells per well and incubated for 24 h prior to the experiment. The supernatant in each well were discarded and the attached cells were washed using serum-free Fluorobite^TM DMEM twice to remove any phenol red. The peptide, at concentrations of 10 mgmL^−1, 1 mgmL^−1, 0.1 mgmL^−1, 0.01 mgmL^−1, 0.001 mgmL^−1, and 0.0001 mgmL^−1 were dissolved in serum-free Fluorobite^TM DMEM. The total volume of sample in each well used was 100 μL. The cells were incubated with the peptide for 24 h. Cells were also incubated with serum-free DMEM (positive control) and 2% Triton-X (negative control) for 24 h. The supernatant in each well was then discarded and washed using serum-free Fluorobite^TM DMEM. MTT (100 μL, 1.2 mmolL^−1) dissolved in Fluorobite^TM DMEM was then added to each well and incubated for 2 h for MTT conversion into formazan. The supernatant was then discarded, and the cells were washed using Fluorobite^TM DMEM to remove any residual MTT and formazan that were not attached to cellular mitochondria. Formazan was dissolved in dimethyl sulfoxide (DMSO) (50 μL), and the absorbance was measured on a microplate reader at a wavelength of 570 nm. Cell viability was expressed as a percentage of the positive control and calculated as follows (where Aexp is the absorbance at 570 nm of the experimental group, Aneg is the absorbance at 570 nm of the negative control, and Acon is the cell viability of the positive control): Cell viability = (Aexp − Aneg)/(Acon − Aneg).

[3] = physchem
Method: To investigate the potential peptide degradation during storage and when in a cell culture medium, the stability of GSH in NaOH (0.1 molL^−1, pH 13.0), HBSS (pH 7.4), and HCl (0.1 molL^−1, pH 1.0) were investigated. GSH (100 μgmL^−1) was incubated at 37 °C with the above conditions for 24 h or until at least 20% of peptide was degraded. The samples were withdrawn at the time intervals 0, 1, 10, 30, 60, 120, 240, 480, and 1440 min and mixed with equal volume of ice-cold HCl (0.2 molL^−1) until analysis by HPLC. Stability was repeated until three results within <5% SD were obtained.

[4] = background statement in abstract, ref not given; cited from earlier work
[5] = target: chymotrypsin (Bos taurus, UniProt P00766); test: in vitro; settings: bovine, chymotrypsin solution
Method: (§1) To investigate the GSH degradation against common enzymes of the GI tract, the degradation of GSH in the presence of pepsin, chymotrypsin, trypsin, aminopeptidase, GGT, jejunum luminal content, and mucosal homogenates obtained from the rats’ intestines were investigated. GSH (100 μgmL^−1) was incubated at 37 °C with the above enzymes or mixtures for 24 h. The sample was withdrawn at the time intervals of 0, 1, 10, 30, 60, 120, 240, 480, and 1440 min, which were then mixed with equal volume of ice-cold HCl (0.2 molL^−1) until analysis by HPLC. Enzymatic degradation was repeated until three results within <5% SD were obtained.

[6] = target: pepsin (Bos taurus, UniProt P00792); test: in vitro; settings: bovine, pepsin solution
Chain of pepsin (P00792 43-372): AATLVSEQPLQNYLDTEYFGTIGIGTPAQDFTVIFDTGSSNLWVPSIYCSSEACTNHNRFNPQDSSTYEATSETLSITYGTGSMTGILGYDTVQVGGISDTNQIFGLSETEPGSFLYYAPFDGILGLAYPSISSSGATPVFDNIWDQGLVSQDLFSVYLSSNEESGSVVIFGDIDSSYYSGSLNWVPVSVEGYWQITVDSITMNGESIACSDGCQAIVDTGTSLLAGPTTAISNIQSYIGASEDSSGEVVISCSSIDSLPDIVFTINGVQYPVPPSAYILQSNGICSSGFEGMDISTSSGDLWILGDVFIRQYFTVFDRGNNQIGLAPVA
Method: as §1

[7] = in vitro; settings: rat
Method: as §1

[8] = test system: γ-glutamyl transferase (GGT); test: in vitro; settings: horse, γ-glutamyl transferase (GGT) solution
Method: as §1

[9] = target: trypsin (Bos taurus, UniProt P00760); test: in vitro; settings: bovine, trypsin solution
Chain of trypsin (P00760 24-246): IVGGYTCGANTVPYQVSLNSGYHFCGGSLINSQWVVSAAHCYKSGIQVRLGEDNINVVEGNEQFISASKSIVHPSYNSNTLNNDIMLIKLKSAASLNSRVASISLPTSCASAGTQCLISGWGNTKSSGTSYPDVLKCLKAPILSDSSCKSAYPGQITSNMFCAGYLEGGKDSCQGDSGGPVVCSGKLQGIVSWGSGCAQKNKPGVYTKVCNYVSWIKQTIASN
Method: as §1

[10] = test system: aminopeptidase; test: in vitro; settings: aminopeptidase solution
Method: as §1

Row | Compound | viability at 24 h, 0.0325 mmolL^−1 [1] [%] | IC50 [2] [mM] | cytotoxicity (in words) ([2]; up to 3.25 mmolL^−1) | half-life at 100 μgmL^−1 ([3]; HBSS buffer, pH 7.4) [h] | half-life at 100 μgmL^−1 ([3]; aqueous HCl solution, pH 2) [h] | half-life at 100 μgmL^−1 ([3]; aqueous NaOH solution, pH 12) [h] | oral bioavailability [4] | half-life at 100 μgmL^−1 [5] [h] | half-life at 100 μgmL^−1 [6] [h] | half-life at 100 μgmL^−1 ([7]; jejunum luminal contents) [h] | half-life at 100 μgmL^−1 ([7]; jejunum mucosal homogenates) [h] | half-life at 100 μgmL^−1 [8] [h] | half-life at 100 μgmL^−1 [9] [h] | half-life at 100 μgmL^−1 [10] [h]
1 | CN(C(=O)CC[C@H](N)C(=O)O)[C@@H](CS)C(=O)NCC(=O)O [Compound 1.70] | 108 ± 9.4 | > 3.25 | no cytotoxicity detected |  |  |  |  |  |  |  |  |  |  | 
2 | N[C@@H](CCC(=O)N[C@@H](CS)C(=O)NCC(=O)O)C(=O)O [GSH, Glutathione] |  | > 3.25 |  | 46.3 ± 2.3 | 203 ± 10.1 | 2.5 ± 0.1 | below 1% | 4.6 ± 0.2 | 31.4 ± 1.6 | 30.5 ± 1.5 | 9.4 ± 2 | 0.7 ± 0.03 | 5.8 ± 0.3 | 18.9 ± 0.9
